Test results taken from US20040063624A1, “Method of inhibiting the transition of free HIV virus through the cllular mucosal barrier” (priority 1999, published 2004).

Legend:
HIV-1 strain IIIb [1] = assay: Viral intake and release: cell-free HIV-1 taken up by epithelial monolayer, supernatant titrated on MT4 cells; type: cell-based
Protocol: Epithelial cells were obtained from biopsies of the gingiva of a healthy donor. The biopsies were washed several times with phosphate-buffered saline and cultured after trypsinization in Dulbecco modified Eagle medium containing 10% fetal calf serum (FCS). Fibroblast growth was suppressed by the addition of recombinant epidermal growth factor (10 μg/liters Sigma, Deisenhofen, Germany) to the culture medium. The epithelial character of the primary cells and the formation of tight junctions were confirmed morphologically by electron microscopy.
(§1) HIV-1 strain IIIb (1,8×10^4 50% tissue culture infective doses [TCID50/ml]) harvested from HIV-1 infected H9 cells was cleared from all debris by centrifugation (10 min. 200×g) and filtered through a 0,2 μm pore size filter membrane. The cell-free virus was diluted 1:10 with Hanks buffer and was placeed in the apical compartment (for details see below). After a 45 min incubation, medium from the lower compartment was harvested. The amount of infectious HIV-1 in the basal chamber of the culture unit was determined by a standard tritation assay Tritation of HIV was performed in triplicate in 24-well tissue culture plates on MT 4 cells seeded at a concentration of 2×10^4/ml. Samples were diluted serially (1:10) in culture medium (RPMI 1640 supplemented with 10% FCS and 5% glutamine). The titration was evaluated between 10 and 14 days postinfection when a prominent cytopathic effect (CPE) was visible. Medium was replaced twice a week with cells being diluted as required. Values of TCID50 per milliliter were determined as described in Reed C. J. et al., 1938, Am. J. Hyg., 27, 494.497. All experiments were performed in triplicate.
HIV-1 strain IIIb (1,8×10^5 TCID50/ml) was placed on epithelial cells (10^6/petri dish). […] After a 1-h incubation, the cells were washed three times with trysin (0,25%) and incubated for 10 min at 37° C. with trypsin solution to inactivate all virus particles adsorbed at the cell surface. The cells were harvested and subcultured for different incubation times (see. Table 1). Subsequently, the cell-free supermatant of each subculture was titrated on MT4 cells as described above.
For the data in Table 1 HIV-1 strain IIIb (1,8×10^4 TCID50/ml) was placed on epithelial cells (10^6/petri dish) with or without inhibitors. After a 1-h incubation the cells were treated with trypsin to inactivate all extracellular HIV particles. Cells were incubated with fresh medium and the supernatants were harvested at different time points. Infectious virus in the supernatant was titrated on MT4 cells (see Materials and Methods). All experiments were performed in triplicate. The differences between the infectious titers with and without inhibitors are highly significant for all incubation times (P<0.001 by the Mann Whitney U test).

HIV-1 strain IIIb [2] = assay: Viral transepithelial transport in two-compartment culture system; type: cell-based; conditions: 45 min. incubation; for amount of infectious HIV 1 in the basal compartment: without inhibitor 10^3
Protocol: For transepithelial transport experiments, primary epitheilal cells (10^4/ml) were grown on a polycarbonate filter membrane (9 mm diameter 3,0 μm pore diameter, Becon Dickinson) separating a basal and an apical chamber and cultivated for 10 days until confluence was observed. The development of an epithelial monolayer was examined by confocal laser microscopy. To further test for confluence a fluorescein solution (0,2 mg/ml) or fluorescent paricles (10^6 particles/ml each particle 0,1 μm in diameter) were added to the apical chamber and fluorescence activity in the basal chambers was measured after 45 min of incubation at 4° C. to inhibit cell membrane diffusion. For calibration of paracellular diffusion membranes were covered with a layer of 15% polyacrylamide gel leaving free circular areas by placing small cylinders of defined size on the filter before gel casting. Fluorescence activity which diffused from the apical to the basal chamber through different areas of uncovered epithelial cells was measured after the 45 min. incubation.
as §1
The HIV-1 specificity of the CPE in MT4 cells was confirmed by determination of p24 core protein content by a p24 antigen capture assay (Coulter). […] Experiments were done in triplicate.

[3] = tested on: transport of gp120 coated particles through the epithelial monolayer; assay: Transepithelial transport of gp120-coated fluorescent particles; type: cell-based, human; conditions: for transport of gp120-coated particles, % of the level for unstimulated cells: FSK- and IBMX-treated cells
Excerpt: For transepithelial transport studies gp120 was covalently coupled to monodispersed carboxylated fluorescent microparticles (0,1 μm in diameter; Polysciences, Warlington, Pa.) as described previously (Molday R. S., 1975, J. Cell Biol., 64, 75-88). The active groups of the control beads and the remaining gp120 coated beads were blocked with glycine. The attachment of gp120 to the fluoresent particles was quantified by measuring the binding of a monoclonal anti-HIV gp120 antibody to the beads.
The gp120-coated particles were diluted (10^5 partices/ml) in Hanks buffer and placed in the apical chamber after the epithelial cells were washed three times with Hanks buffer. The apical chamber was transferred into a new basal chamber, and Hanks buffer was changed after 10, 40, 90 min of incubation. The buffer harvested at the indicated time points was centrifuged (14.000×g for 15 min), the pellet was resuspended and the fluorescence activity was measured. A combination of forskolin (FSK 10 μM ) and 3-isobutyl-1-methyl-xantin (IBMX, 10 μm) was used to study the effect of cyclic AMP (cAMP) and epithelial transport. Preincubation of the epithelial cells for 2 h increased the intracellular cAMP level eightfold (cAMP immunoassay: Biomol, Plymouth Meeting, Pa.). Glycine-coated microparticles were used as the control for nonspecific paracellular flow under the experimental conditions: the fluorescence of the controls was subtracted from the fluorescence-activities found in the respective experiments with gp120-coated particles.
After incubation for 10, 40 and 90 min at 37° C., the solution in the basal chamber was changed and the fluorescence activity was measured as described above.
To increase the amount of high-mannose-type glycans on the epithelial cells, cells were preincubated for 2 h with 10 mM desoxymannojirimycin (Fuhrmann U. E., 1984, Nature, 307, 755-788). To control the increase of high-mannose-type glycan expression, the filter membrane was cut and placed in 300 μl of lysis buffer (0,2 M Tris-HCl, 2% SDS, 0,1% dithiothreitol). […]

## CO[C@H]1O[C@H](CO)[C@@H](O)[C@H](O)[C@@H]1O [aMMP, α-methyl-mannopyramoside]
HIV-1 strain IIIb [1]; aMMP (100 mM), 60 min. after trypsin treatm.
  HIV concn in the supernatant after treatm.: 10^1 TCID50/ml
HIV-1 strain IIIb [1]; aMMP (100 mM), 120 min. after trypsin treatm.
  HIV concn in the supernatant after treatm.: 10^1 TCID50/ml
HIV-1 strain IIIb [1]; aMMP (100 mM), 160 min after trypsin treatm.
  HIV concn in the supernatant after treatm.: 10^1 TCID50/ml
HIV-1 strain IIIb [1]; aMMP (100 mM), 24 h after trypsin treatm.
  HIV concn in the supernatant after treatm.: 10^1 TCID50/ml
HIV-1 strain IIIb [2]; aMMP (100 mM)
  reduction of the amount of infectious HIV 1 in the basal compartment: 1 order of magnitude
HIV-1 strain IIIb [2]; preincubation with aMMP (100 mM)
  amount of infectious HIV 1 in the basal compartment: 10^2 TCID50/ml
[3]; aMMP 100 mM final concentration
  transport of gp120-coated particles, % of the level for unstimulated cells: about 50%

## OC[C@H]1NC[C@@H](O)[C@@H](O)[C@@H]1O [desoxymannojirimycin, reference compound]
[3]; 2 h preincubation with 10 mM desoxymannojirimycin, FSK/IBMX stimulated cells
  effect on the cAMP-stimulated increase of particles in the basal compartment (in words): further augmentation

## Mucin
HIV-1 strain IIIb [1]; Mucin (1 mM), 60 min. after trypsin treatm.
  HIV concn in the supernatant after treatm.: 10^1 TCID50/ml
HIV-1 strain IIIb [1]; Mucin (1 mM), 120 min. after trypsin treatm.
  HIV concn in the supernatant after treatm.: 10^1 TCID50/ml
HIV-1 strain IIIb [1]; Mucin (1 mM), 160 min after trypsin treatm.
  HIV concn in the supernatant after treatm.: 10^1 TCID50/ml
HIV-1 strain IIIb [1]; Mucin (1 mM), 24 h after trypsin treatm.
  HIV concn in the supernatant after treatm.: 10^1 TCID50/ml
HIV-1 strain IIIb [1]; Table 1
  inhibition of viral uptake and release of cell-free HIV-1 (in words): significantly inhibit
HIV-1 strain IIIb [2]; mucin (30 mg/ml per method)
  amount of infectious HIV 1 in the basal compartment: 10^2 TCID50/ml

## mannan
HIV-1 strain IIIb [1]; Mannan (5 mM), 60 min. after trypsin treatm.
  HIV concn in the supernatant after treatm.: 10^0 TCID50/ml
HIV-1 strain IIIb [1]; Mannan (5 mM), 120 min. after trypsin treatm.
  HIV concn in the supernatant after treatm.: 10^1 TCID50/ml
HIV-1 strain IIIb [1]; Mannan (5 mM), 160 min after trypsin treatm.
  HIV concn in the supernatant after treatm.: 10^1 TCID50/ml
HIV-1 strain IIIb [1]; Mannan (5 mM), 24 h after trypsin treatm.
  HIV concn in the supernatant after treatm.: 10^1 TCID50/ml
HIV-1 strain IIIb [2]; mannan (5 mM)
  reduction of the amount of infectious HIV 1 in the basal compartment: 1 order of magnitude
HIV-1 strain IIIb [2]; preincubation with mannan (5 mM)
  amount of infectious HIV 1 in the basal compartment: 10^2 TCID50/ml
[3]; mannan 5 mg/ml final concentration
  transport of gp120-coated particles, % of the level for unstimulated cells: about 50%
